# Patent US20170173114A1, “METHODS AND COMPOSITIONS FOR INDUCTION OF UCP1 EXPRESSION” (Joslin Diabetes Center, Inc., priority 2014, published 2017)
# Legend:
# [1] = system: WT-1 brown preadipocytes; experiment: 2-deoxy-[3H]glucose uptake in WT-1 brown preadipocytes; type: cell-based, murine; settings: growth media, two days
# Procedure: The following glucose uptake assay was used to determine whether FGF6 could impact cellular glucose uptake. Specifically, glucose uptake was monitored in WT-1 brown preadipocytes and 3T3-F442A white preadipocytes in the presence or absence of FGF6. After serum starvation in DMEM/H medium containing 1% of BSA for 2-3 h, cells were washed with HEPES buffer and then incubated with or without 100 nM insulin for 30 min in DMEM/H medium containing 1% of BSA. Glucose transport was determined by the addition of 2-deoxy-[3H]glucose (0.1 mM, 0.5 μCi/mL; PerkinElmer Life and Analytical Science, Waltham, Mass.). After 5 minutes of incubation, the reaction was stopped by ice-cold PBS and cells were washed twice with ice-cold PBS. Cells were then lysed in 0.1% SDS, and glucose uptake was assessed in 4 mL of scintillant using Beckman LS6500 scintillation counter (Beckman Coulter, Indianapolis Ind.). Nonspecific 2-deoxy-[3H]glucose uptake was measured in the presence of cytochalasin B (20 μM) and was subtracted from the total uptake to get specific glucose uptake. Results were expressed as the mean±s.e.m. of the indicated number of experiments. The protein content was determined by the Bradford method.
# The role of PGs in regulating mitochondrial function and cellular glucose uptake was also assessed. […]
# [2] = system: PTGS2 (COX2); experiment: PTGS2 mRNA / COX2 protein expression in WT-1 brown preadipocytes; type: cell-based, murine; settings: WT-1, 24 hours; vs vehicle
# Procedure: Total RNA was isolated with QIAzol lysis reagent (Qiagen, Valencia, Calif.) and purified by RNeasy Mini columns (Qiagen) following the manufacture's instructions. cDNA was prepared from total RNA using the Advantage RT-PCR kit (BD Biosciences, Palo Alto, Calif.) according to manufacturer's instructions. Diluted cDNA was used in a PCR reaction with SYBR Green Master Mix (Applied Biosystems, Foster City, Calif.) and primers specifically designed for detection of the gene of interest. PCR reactions were run in duplicate for each sample and quantitated in the ABI Sequence Detection System (Applied Biosystems). Data were expressed as arbitrary units after normalization to levels of expression of internal controls for each sample. Sequences of primers for specific genes are each obtained from the published literature or designed using publically available gene sequence databases. Unless otherwise indicated, gene expression data described in the examples below was obtained using QPCR.
# Cells were harvested in lysis buffer (50 mM HEPES, 137 mM NaCl, 1 mM MgCl2, 1 mM CaCl2, 10 mM Na2P2O7, 10 mM NaF, 2 mM EDTA, 10% glycerol, 1% Igepal CA-630, 2 mM vanadate, 10 μg/ml of leupeptin, 10 μg/ml of aprotinin, 2 mM phenylmethylsulfonyl fluoride; pH 7.4). After lysis, lysates were clarified by centrifugation at 12,000×g for 20 min at 4° C., the amount of protein in the supernatants was determined by the Bradford Protein Assay (Bio-Rad Laboratories, Hercules, Calif.). Proteins were directly solubilized in Laemmli sample buffer. Equal amounts of lysates were separated by sodium dodecyl sulfate-polyacrylamide gel electrophoresis and transferred to Immobolin-P membranes. […] Specifically bound primary antibodies were detected with peroxidase-coupled secondary antibody and enhanced chemiluminescence (ECL, Amersham Biosciences, Piscataway, N.J.).
# To determine if FGF4, FGF5, FGF6, FGF10, FGF16, FGF17, FGF18 or FGF20 induced either UCP1 mRNA or PTGS2 mRNA expression, murine brown preadipocyte WT-1 cells (Tseng et al., Nat. Cell. Biol. (2005) 7(6):601-611) were grown in growth media (DMEM-high glucose+10% FBS) supplemented with FGF4, FGF5, FGF6, FGF10, FGF16, FGF17, FGF18, FGF20 or buffer (control) in combination with insulin (20 nM) and triidothyronine (T3, 1 nM) for three days. All FGFs were used at a dosage of 200 ng/mL. mRNA was isolated and UCP1 and PTGS2 gene expression levels were evaluated by quantitative reverse transcription polymerase chain reaction (Q-RT-PCR) analysis. […]
# To test the role of specific prostaglandins (PGs) in activating UCP1 expression, WT-1 brown adipocytes were pretreated with PGE2, PGI2 and FGF6 for 24 hours. mRNA expression levels of UCP1, PTGS2, LDHA, PDK1 and PKM2 were then measured.
Structure (SMILES),glucose uptake in WT-1 brown preadipocytes [1],PTGS2 mRNA expression [2]
"CCCCC[C@H](O)/C=C/[C@H]1[C@H](O)CC(=O)[C@@H]1C/C=C\CCCC(=O)O [PGE2, reference compound]",enhanced,significantly induced
"CCCCC[C@H](O)/C=C/[C@@H]1[C@H]2C/C(=C/CCCC(=O)O)O[C@H]2C[C@H]1O [PGI2, reference compound]",enhanced,significantly induced
